From the supplement of paper PMC6045584
± gives the standard deviation of the averaged measurements.

What was measured:
FLAVOPIRIDOL = compound: CN1CC[C@H](c2c(O)cc(O)c3c(=O)cc(-c4ccccc4Cl)oc23)[C@H](O)C1 [FLAVOPIRIDOL]; experiment: surviving fraction relative to DMSO-only wells; higher = less growth inhibition; conditions: exposure time: 5 days
How it was run: (§1)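 Surviving fraction is CellTiter-Glo luminescence divided by the median of wells given DMSO only. For this, log-phase tumour cell lines went into 384-well plates at 250–500 cells per well and, 24 hours later, into five days of continuous inhibitor exposure at 0.5, 1, 5, 10, 50, 100, 500 and 1000 nM. Lines were screened three times and retained only if replicate Pearson r >0.7 and median Z' >0.3.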

LAPATINIB = compound: CS(=O)(=O)CCNCc1ccc(-c2ccc3ncnc(Nc4ccc(OCc5cccc(F)c5)c(Cl)c4)c3c2)o1 [LAPATINIB]; experiment: as above; conditions: exposure time: 5 days
How it was run: as §1

| Test System | surviving fraction (FLAVOPIRIDOL; 0.5 nM) | surviving fraction (FLAVOPIRIDOL; 1 nM) | surviving fraction (FLAVOPIRIDOL; 5 nM) | surviving fraction (FLAVOPIRIDOL; 10 nM) | surviving fraction (FLAVOPIRIDOL; 50 nM) | surviving fraction (FLAVOPIRIDOL; 100 nM) | surviving fraction (FLAVOPIRIDOL; 500 nM) | surviving fraction (FLAVOPIRIDOL; 1000 nM) | surviving fraction (LAPATINIB; 0.5 nM) | surviving fraction (LAPATINIB; 1 nM) | surviving fraction (LAPATINIB; 5 nM) | surviving fraction (LAPATINIB; 10 nM) | surviving fraction (LAPATINIB; 50 nM) | surviving fraction (LAPATINIB; 100 nM) | surviving fraction (LAPATINIB; 500 nM) | surviving fraction (LAPATINIB; 1000 nM) |
| --- | --- | --- | --- | --- | --- | --- | --- | --- | --- | --- | --- | --- | --- | --- | --- | --- |
| S68 BREAST | 1.18 ± 0.31 | 0.847 ± 0.12 | 0.765 ± 0.091 | 1.2 ± 0.31 | 0.888 ± 0.29 | 0.483 ± 0.068 | 0.0377 ± 0.0021 | 0.0367 ± 0.0055 | 1.12 ± 0.24 | 1.01 ± 0.2 | 1.17 ± 0.11 | 1.26 ± 0.22 | 1.07 ± 0.08 | 1.1 ± 0.33 | 0.71 ± 0.058 | 0.769 ± 0.032 |
| SKBR3 BREAST | 1.15 ± 0.074 | 1.0877 ± 0.00058 | 1.05 ± 0.022 | 1.06 ± 0.092 | 0.541 ± 0.051 | 0.207 ± 0.035 | 0.032 ± 0.015 | 0.0233 ± 0.0031 | 1.07 ± 0.057 | 1.06 ± 0.04 | 1.12 ± 0.12 | 1.01 ± 0.054 | 0.697 ± 0.026 | 0.508 ± 0.03 | 0.233 ± 0.014 | 0.171 ± 0.021 |
| BT20 BREAST | 1.21 ± 0.073 | 1.16 ± 0.022 | 1.17 ± 0.1 | 1.013 ± 0.0035 | 0.742 ± 0.12 | 0.359 ± 0.012 | 0.038 ± 0.0062 | 0.0367 ± 0.004 | 1.12 ± 0.065 | 1.128 ± 0.0092 | 1.05 ± 0.048 | 1.12 ± 0.05 | 1.14 ± 0.048 | 1.18 ± 0.054 | 1.16 ± 0.045 | 1.38 ± 0.068 |
| JIMT1 BREAST | 1 ± 0.012 | 1.01 ± 0.033 | 1.05 ± 0.047 | 1.02 ± 0.035 | 0.809 ± 0.019 | 0.2 ± 0.029 | 0.0467 ± 0.0053 | 0.0375 ± 0.0027 | 0.991 ± 0.035 | 1.02 ± 0.04 | 1.05 ± 0.039 | 1.01 ± 0.024 | 1 ± 0.035 | 1.01 ± 0.066 | 0.907 ± 0.065 | 0.783 ± 0.019 |
| HCC1954 BREAST | 1.16 ± 0.0025 | 1.12 ± 0.063 | 1.49 ± 0.18 | 1.12 ± 0.23 | 0.361 ± 0.1 | 0.0465 ± 0.0057 | 0.0345 ± 0.0014 | 0.0318 ± 0.0039 | 0.905 ± 0.087 | 1.08 ± 0.058 | 1.04 ± 0.023 | 1.01 ± 0.12 | 0.823 ± 0.037 | 0.804 ± 0.092 | 0.387 ± 0.016 | 0.387 ± 0.039 |
| VP229 BREAST | 1.13 ± 0.17 | 1.11 ± 0.062 | 1.16 ± 0.073 | 0.957 ± 0.12 | 0.564 ± 0.095 | 0.211 ± 0.13 | 0.0273 ± 0.0031 | 0.0273 ± 0.004 | 1.23 ± 0.14 | 1.21 ± 0.039 | 1.21 ± 0.15 |  | 1.04 ± 0.11 | 0.92 ± 0.058 | 0.626 ± 0.019 | 0.436 ± 0.087 |
| NOS1 BONE | 1.25 ± 0.046 | 1.19 ± 0.054 | 1.22 ± 0.15 | 1.26 ± 0.084 | 0.54 ± 0.061 | 0.083 ± 0.0027 | 0.031 ± 0.004 | 0.0383 ± 0.0084 | 1.16 ± 0.16 | 1.05 ± 0.12 | 1.11 ± 0.069 | 1.12 ± 0.033 | 1.13 ± 0.068 | 1.08 ± 0.13 | 1.03 ± 0.093 | 0.898 ± 0.029 |
| SG31 HEADNECK | 1.51 ± 0.26 | 1.23 ± 0.055 | 0.964 ± 0.096 | 0.988 ± 0.053 | 0.483 ± 0.057 | 0.147 ± 0.038 | 0.0443 ± 0.024 | 0.027 ± 0.0046 | 1.17 ± 0.26 | 1.05 ± 0.18 | 0.799 ± 0.1 | 0.948 ± 0.093 | 0.699 ± 0.084 | 1.02 ± 0.27 | 0.775 ± 0.23 | 0.846 ± 0.21 |
| OS25HAL BONE | 1.01 ± 0.035 | 0.996 ± 0.058 | 1.12 ± 0.052 | 1.06 ± 0.021 | 1.1 ± 0.036 | 0.101 ± 0.015 | 0.048 ± 0.013 | 0.0443 ± 0.012 | 1.01 ± 0.018 | 1.06 ± 0.018 | 1.06 ± 0.066 | 1 ± 0.024 | 1.05 ± 0.029 | 1.04 ± 0.0055 | 1.09 ± 0.044 | 1.1 ± 0.053 |
| 22RV1 PROSTATE | 1.04 ± 0.12 | 0.928 ± 0.16 | 0.953 ± 0.11 | 0.893 ± 0.2 | 0.897 ± 0.11 | 0.405 ± 0.14 | 0.124 ± 0.11 | 0.118 ± 0.086 | 1.01 ± 0.05 | 1.1 ± 0.096 | 0.954 ± 0.076 | 1.01 ± 0.1 | 1.04 ± 0.034 | 1.07 ± 0.085 | 1.08 ± 0.12 | 1.11 ± 0.059 |
